# Data taken from patent EP0913399A1, “Silver -2-mercapto sodium benzoate pharmaceutical compound and process for obtaining the same” (Korban Medical S.a.s. di Longhetti Gianna & C., priority 1997, dated 1999).
# Where a name gives a salt, the structure may show the parent alone.
# Key:
# [1] = effects to the skin (photosensitization, irritating, caustic)
# tested organism = assay: MIC comparison of equivalent ionic doses of Ag^+ from thiometal and from nitrate; antibacterial action of the anion; format: cell-based
# solubility = format: physicochemical
Structure (SMILES),caustic effects to the skin [1],irritating effects to the skin [1],photosensitization [1],"activity in MIC in favour of the thiometal (tested organism; comparison of equivalent ionic doses of Ag^+ from thiometal and from nitrate, variable depending on the tested organism)",Solubility (solubility; DMSO),Solubility (solubility; absolute ethanol),Solubility (solubility; acetone),Solubility (solubility; ether),Solubility (solubility; water (cold)),antibacterical action (tested organism)
O=C(O)c1ccccc1[S][Ag] [silver-2-mercapto sodium benzoate],does not cause,does not cause,does not cause,-1.6 to -50 mcg/ml,moderately soluble,insoluble,insoluble,insoluble,soluble,
"O=C(O)c1ccccc1S [mercapto sodium benzoate anion, sodium salt of the 2-mercaptobenzoic acid, reference compound]",,,,,,,,,,does not develop an antibacterical action
